Laboratory results published in ChEMBL document CHEMBL1142826, “Structure based approach to the design of bicyclic-1H-isoindole-1,3(2H)-dione based androgen receptor antagonists” (Bioorg Med Chem Lett, 2005).

Assays:
Androgen receptor [1] = target: T1, Androgen receptor (Homo sapiens, UniProt P10275, T878A); assay: Inhibition of mutant T877A Androgen receptor in human LNCaP cells; Ag means agonist; format: functional, cell-based
Androgen receptor [2] = target: T2, Androgen receptor (Homo sapiens, UniProt P10275); assay: Inhibition of androgen dependent human prostate cancer cell […] proliferation; Ag means agonist; format: functional, cell-based; conditions: cancer cell lines
T2 sequence (P10275 whole entry): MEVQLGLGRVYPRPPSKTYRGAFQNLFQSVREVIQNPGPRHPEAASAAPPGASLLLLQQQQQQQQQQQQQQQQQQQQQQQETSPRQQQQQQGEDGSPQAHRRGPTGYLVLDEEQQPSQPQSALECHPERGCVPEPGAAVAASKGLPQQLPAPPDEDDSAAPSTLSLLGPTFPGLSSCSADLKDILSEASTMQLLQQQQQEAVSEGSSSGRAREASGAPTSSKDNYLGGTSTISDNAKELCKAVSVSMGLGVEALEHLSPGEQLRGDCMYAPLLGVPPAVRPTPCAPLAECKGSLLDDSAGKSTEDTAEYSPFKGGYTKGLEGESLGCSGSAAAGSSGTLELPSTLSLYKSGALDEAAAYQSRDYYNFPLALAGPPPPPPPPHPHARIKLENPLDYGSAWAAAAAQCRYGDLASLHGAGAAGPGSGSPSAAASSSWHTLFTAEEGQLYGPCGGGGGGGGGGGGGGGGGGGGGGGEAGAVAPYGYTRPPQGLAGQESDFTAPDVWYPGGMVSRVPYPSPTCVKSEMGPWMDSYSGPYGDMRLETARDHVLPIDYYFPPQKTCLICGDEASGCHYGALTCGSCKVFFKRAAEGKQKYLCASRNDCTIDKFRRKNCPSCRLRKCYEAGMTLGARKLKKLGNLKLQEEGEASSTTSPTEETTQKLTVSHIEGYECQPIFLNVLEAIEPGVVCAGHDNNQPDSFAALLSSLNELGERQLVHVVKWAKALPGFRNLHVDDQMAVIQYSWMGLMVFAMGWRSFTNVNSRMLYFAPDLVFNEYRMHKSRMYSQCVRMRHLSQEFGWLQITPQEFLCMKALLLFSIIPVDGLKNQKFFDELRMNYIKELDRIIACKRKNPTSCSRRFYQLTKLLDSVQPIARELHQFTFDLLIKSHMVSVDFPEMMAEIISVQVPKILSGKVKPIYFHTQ

Androgen receptor [3] = target: T1, Androgen receptor; assay: biochemical
Androgen receptor [4] = target: T2, Androgen receptor
Description: Inhibition of androgen receptor in human MDA-453 cells

Androgen receptor [5] = target: T1, Androgen receptor; assay: Inhibition of mutant T877A Androgen receptor in human LNCaP cells; format: cell-based
Androgen receptor [6] = target: T2, Androgen receptor; assay: Binding affinity for androgen receptor in human MDA-453 cells

T1 sequence (P10275 whole entry T878A): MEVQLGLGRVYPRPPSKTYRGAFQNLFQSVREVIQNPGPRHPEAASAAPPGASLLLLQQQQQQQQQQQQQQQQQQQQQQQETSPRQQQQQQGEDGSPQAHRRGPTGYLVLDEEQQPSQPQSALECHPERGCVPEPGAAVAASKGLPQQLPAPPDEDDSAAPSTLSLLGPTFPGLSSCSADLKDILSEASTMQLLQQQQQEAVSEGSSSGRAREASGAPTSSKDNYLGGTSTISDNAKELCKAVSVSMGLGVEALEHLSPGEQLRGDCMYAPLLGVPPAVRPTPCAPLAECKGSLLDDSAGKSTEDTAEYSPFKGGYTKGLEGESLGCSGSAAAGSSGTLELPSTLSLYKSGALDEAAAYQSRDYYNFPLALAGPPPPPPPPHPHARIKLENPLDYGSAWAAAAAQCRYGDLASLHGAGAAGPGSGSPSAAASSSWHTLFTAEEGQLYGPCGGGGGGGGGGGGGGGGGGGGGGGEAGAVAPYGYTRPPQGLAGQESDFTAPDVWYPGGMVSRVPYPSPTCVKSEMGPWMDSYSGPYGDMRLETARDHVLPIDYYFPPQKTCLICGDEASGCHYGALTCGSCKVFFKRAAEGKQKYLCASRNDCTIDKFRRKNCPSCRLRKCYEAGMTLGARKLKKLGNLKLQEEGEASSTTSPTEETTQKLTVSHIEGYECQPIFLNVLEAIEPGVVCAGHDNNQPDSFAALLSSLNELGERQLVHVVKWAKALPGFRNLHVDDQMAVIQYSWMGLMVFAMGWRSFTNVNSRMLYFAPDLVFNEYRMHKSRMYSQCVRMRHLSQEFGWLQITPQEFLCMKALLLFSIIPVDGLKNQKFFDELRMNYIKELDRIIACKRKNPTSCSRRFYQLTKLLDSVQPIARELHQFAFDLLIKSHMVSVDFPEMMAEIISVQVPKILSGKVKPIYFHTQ

Row | Compound | IC50 (Androgen receptor [1]) | IC50 (Androgen receptor [2]) | Ki (Androgen receptor [3]) | IC50 (Androgen receptor [4]) | IC50 (Androgen receptor [5]) | Ki (Androgen receptor [6])
1 | O=C1[C@@H]2C3CCC(C3)[C@@H]2C(=O)N1c1ccc([N+](=O)[O-])c(C(F)(F)F)c1 | Agonist | Agonist |  |  |  | 
2 | Cc1cc(N2C(=O)[C@@H]3C4C=CC(CC4)[C@@H]3C2=O)ccc1Br | Agonist | Agonist | 0.01 nM | 68 nM |  | 
3 | O=C1[C@@H]2C3C=CC(CC3)[C@@H]2C(=O)N1c1cccc(C(F)(F)F)c1 |  |  | 19 nM | 196 nM | 66 nM | 
4 | O=C1[C@@H]2C3C=CC(C3)[C@@H]2C(=O)N1c1ccc(Cl)c(Cl)c1 |  |  | 6 nM | 307 nM | 41 nM | 158 nM
5 | O=C1[C@@H]2C3C=CC([C@H]4C[C@@H]34)[C@@H]2C(=O)N1c1cccc(C(F)(F)F)c1 |  |  | 9 nM | 1700 nM | 30 nM | 
6 | CN1C(=O)C2C=CC1[C@@H]1C(=O)N(c3ccc([N+](=O)[O-])c4ccccc34)C(=O)[C@H]21 (stereo not given in full) |  |  | 115 nM | 4030 nM | 631 nM | > 5000 nM
7 | O=C1[C@@H]2C3CCCC(CC3)[C@@H]2C(=O)N1c1cccc(C(F)(F)F)c1 |  |  | 20 nM | 658 nM | 23 nM | 
8 | O=C1[C@@H]2C3C=CC(CC3)[C@@H]2C(=O)N1c1ccc(Cl)c(Cl)c1 | Agonist | Agonist | 28 nM | 150 nM |  | 83 nM
9 | O=C1[C@@H]2C3C=CC(CC3)[C@@H]2C(=O)N1c1ccc([N+](=O)[O-])c2ccccc12 |  | Agonist | 0.5 nM | 224 nM |  | 
10 | O=C1[C@@H]2C3C=CC([C@H]4C[C@@H]34)[C@@H]2C(=O)N1c1ccc([N+](=O)[O-])c2ccccc12 | Agonist | Agonist |  | 786 nM |  | 3 nM
11 | O=C1[C@@H]2C3C=CC(CCC3)[C@@H]2C(=O)N1c1ccc([N+](=O)[O-])c2ccccc12 | Agonist | Agonist |  | 49 nM |  | 
12 | Cc1cc(N2C(=O)[C@@H]3C4C=CC([C@H](O)[C@@H]4O)[C@@H]3C2=O)ccc1Br |  | Agonist | 33 nM | 5240 nM | 59 nM | 432 nM
13 | CC(C)(O)C(=O)Nc1ccc([N+](=O)[O-])c(C(F)(F)F)c1 [HYDROXYFLUTAMIDE] | Agonist | Agonist |  |  |  | 
